Test system: GABA-A receptor
Assay: 35S-TBPS binding assay on rat cerebral cortex cell membrane
Set-up: species or system Sprague-Dawley rat
Settings: 2 nM 35S-TBPS, GABA added, read-out: 35S-TBPS bindng test, IC50 on inhibiting the TBPS binding activity
Protocol: 1.2.1 Extraction of Cerebral Cortex Cell Membrane:
1. The cerebral cortex of male Sprague-Dawley rat was isolated.
2. A pre-chilled 0.32 M sucrose solution (one tablet of protease inhibitor was added per 100 ml) was added to the cerebral cortex (the volume of sucrose solution was 10 times the volume of the cerebral cortex). The mixture was crushed with a 50 ml glass tissue homogenizer in batches and mixed well.
3. The mixture was centrifuged at 1500 g, 4° C. for 10 minutes, and the supernatant was collected.
4. The mixture was centrifuged at 20000 g, 4° C. for 30 minutes, and the supernatant was discarded.
5. The precipitate was resuspended with the pre-chilled phosphate buffer saline (PBS) (one tablet of protease inhibitor was added per 100 ml). An average of 4 ml of PBS was added per rat, and the mixture was mixed well with a glass tissue homogenizer.
6. The mixture was centrifuged at 10000 g, 4° C. for 10 minutes, and the supernatant was discarded.
7. Steps 5 and 6 were repeated three times.
8. Finally, the precipitate was resuspended with 4 volumes of PBS. The resulting solution was dispensed, frozen in liquid nitrogen, and stored at −80° C.
9. The protein concentration was measured by the bicinchoninic acid (BCA) method.
1.2.2 ^35S-TBPS Binding Assay
1. 230 μL of PBS was added to each well of a well plate with 1.1 ml volume.
2. 60 μL of the cerebral cortex cell membrane (5 μg/μL) solution was added to each well, and the mixture was mixed well.
3. The test compound (3 μL per well) was added, and the plate was incubated at 25° C. for 5 minutes. The DMSO concentration was 1%. The initial compound concentration was 1 NM, and a 3-fold dilution in gradient was carried out to obtain a total of 8 gradients and 2 replicates. 1% DMSO was used as a negative control, and 10 μM P026-2 was used as a positive control.
4. GABA was added at a final concentration of […], and incubated at 25° C. for 5 minutes. 1 mM GABA solution was formulated, and 1.5 μL of the solution was added to each well.
5. ^35S-TBPS was added at a final concentration of 2 nM. The concentration of isotope mother solution was 9.7 μM. After dilution with PBS for 100 times, 6 μL of the diluted isotope solution was added to each well.
6. The plate was incubated at 4° C. for 20 hours.
7. The FilterMate GF/C plate was pre-treated with 0.5% PEI, and incubated at 4° C. for 1 hour.
8. The FilterMate GF/C plate was washed with Universal Harvester twice, 50 ml PBS each time.
9. The reaction solution was transferred to the GF/C plate, and each well was washed 4 times with 900 μL PBS.
10. The washed GF/C plate was placed at 55° C. and dried for 10 minutes.
11. 40 μL of scintillation solution was added to each well, and the CPM value was read with TopCount.
1.2.3 Experimental Data Processing Method:
In the experiment, the CPM (counts per minute) value was read with TopCount. According to the readings of the High control (DMSO) and the Low control (10 μM of the positive compound) experimental groups, the % inhibition was calculated based on the following formula: % Inhibition=100×(CPMHigh control−CPMSample)/(CPMHigh control−CPMLow control)
The IC50 of the compound was calculated according to the following 4-parameter nonlinear logic formula: Y=Bottom+(Top−Bottom)/(1+10^((Log IC50−X)*Hill Slope)),
The effect of the compound of the present invention on the TBPS binding activity was determined by the above test, and the measured IC50 values are shown in Table 1.

Compound | IC50 [nM]
C[C@@]1(O)CC[C@@]2(F)[C@H](CC[C@H]3[C@@H]4CC[C@H](C(=O)Cn5ccc(C#N)n5)[C@@]4(C)CC[C@@H]32)C1 [Example 3, 1-(2-((3R,5R,8S,9S,10R,13S,14S,17S)-10-Fluoro-3-hydroxy-3,13-dimethylhexadecahydro-1H-cyclopenta[a]phenanthren-17-yl)-2-oxoethyl)-1H-pyrazole-3-carbonitrile] | 10.9
C[C@@]1(O)CC[C@@]2(F)[C@H](CC[C@H]3[C@@H]4CC[C@H](C(=O)COc5ccc(C#N)c(F)c5)[C@@]4(C)CC[C@@H]32)C1 [Example 35, 2-Fluoro-4-(2-((3R,5R,8S,9S,10R,13S,14S,17S)-10-fluoro-3-hydroxy-3,13-dimethylhexadecahydro-1H-cyclopenta[a]phenanthren-17-yl)-2-oxoethoxy)benzonitrile] | 15.1
C[C@@]1(O)CC[C@@]2(F)[C@H](CC[C@H]3[C@@H]4CC[C@H](C(=O)CNc5ccc(F)cc5C#N)[C@@]4(C)CC[C@@H]32)C1 [Example 27, 5-Fluoro-2-((2-((3R,5R,8S,9S,10R,13S,14S,17S)-10-fluoro-3-hydroxy-3,13-dimethylhexadecahydro-1H-cyclopenta[a]phenanthren-17-yl)-2-oxoethyl)amino)benzonitrile] | 7.5
COc1ccc2c(c1)nnn2CC(=O)[C@H]1CC[C@H]2[C@@H]3CC[C@@H]4C[C@](C)(O)CC[C@]4(F)[C@H]3CC[C@]12C [Example 48, 1-((3R,5R,8S,9S,10R,13S,14S,17S)-10-Fluoro-3-hydroxy-3,13-dimethylhexadecahydro-1H-cyclopenta[a]phenanthren-17-yl)-2-(5-methoxy-1H-benzo[d][1,2,3]triazol-1-yl)ethan-1-one] | 7.3
C[C@@]1(O)CC[C@@]2(F)[C@H](CC[C@H]3[C@@H]4CC[C@H](C(=O)Cn5cc(C(=O)N6CCC6)cn5)[C@@]4(C)CC[C@@H]32)C1 [Example 62, 2-(4-(Azetidine-1-carbonyl)-1H-pyrazol-1-yl)-1-((3R,5R,8S,9S,10R,13S,14S,17S)-10-fluoro-3-hydroxy-3,13-dimethylhexadecahydro-1H-cyclopenta[a]phenanthren-17-yl)ethan-1-one] | 7.1
C[C@@]1(O)CC[C@@]2(F)[C@H](CC[C@H]3[C@@H]4CC[C@H](C(=O)COc5ccc(C#N)cc5)[C@@]4(C)CC[C@@H]32)C1 [Example 33, 4-(2-((3R,5R,8S,9S,10R,13S,14S,17S)-10-Fluoro-3-hydroxy-3,13-dimethylhexadecahydro-1H-cyclopenta[a]phenanthren-17-yl)-2-oxoethoxy)benzonitrile] | 13.8
CSc1cnn(CC(=O)[C@H]2CC[C@H]3[C@@H]4CC[C@@H]5C[C@](C)(O)CC[C@]5(F)[C@H]4CC[C@]23C)c1 [Example 55, 1-((3R,5R,8S,9S,10R,13S,14S,17S)-10-Fluoro-3-hydroxy-3,13-dimethylhexadecahydro-1H-cyclopenta[a]phenanthren-17-yl)-2-(4-(methylthio)-1H-pyrazol-1-yl)ethan-1-one] | 42.5
C[C@@]1(O)CC[C@@]2(F)[C@H](CC[C@H]3[C@@H]4CC[C@H](C(=O)Cn5cc([N+](=O)[O-])cn5)[C@@]4(C)CC[C@@H]32)C1 [Example 58, 1-((3R,5R,8S,9S,10R,13S,14S,17S)-10-Fluoro-3-hydroxy-3,13-dimethylhexadecahydro-1H-cyclopenta[a]phenanthren-17-yl)-2-(4-nitro-1H-pyrazol-1-yl)ethan-1-one] | 37.8
C[C@@]1(O)CC[C@@]2(F)[C@H](CC[C@H]3[C@@H]4CC[C@H](C(=O)Cn5nc6ccccc6n5)[C@@]4(C)CC[C@@H]32)C1 [Example 14, 2-(2H-Benzo[d][1,2,3]triazol-2-yl)-1-((3R,5R,8S,9S,10R,13S,14S,17S)-10-fluoro-3-hydroxy-3,13-dimethylhexadecahydro-1H-cyclopenta[a]phenanthren-17-yl)ethan-1-one] | 10.4
C[C@]1(O)CC[C@@]2(F)[C@H](CC[C@H]3[C@@H]4CC[C@H](C(=O)CNS(=O)(=O)c5ccccc5)[C@@]4(C)CC[C@@H]32)C1 [Example 71, N-(2-((3S,5R,8S,9S,10R,13S,14S,17S)-10-Fluoro-3-hydroxy-3,13-dimethylhexadecahydro-1H-cyclopenta[a]phenanthren-17-yl)-2-oxoethyl)benzenesulfonamide] | 49
C[C@@]1(O)CC[C@@]2(F)[C@H](CC[C@H]3[C@@H]4CC[C@H](C(=O)Cn5nnc6ccccc65)[C@@]4(C)CC[C@@H]32)C1 [Example 15, 2-(1H-Benzo[d][1,2,3]triazol-1-yl)-1-((3R,5R,8S,9S,10R,13S,14S,17S)-10-fluoro-3-hydroxy-3,13-dimethylhexadecahydro-1H-cyclopenta[a]phenanthren-17-yl)ethan-1-one] | 8.7
CCOC(=O)c1cnn(CC(=O)[C@H]2CC[C@H]3[C@@H]4CC[C@@H]5C[C@](C)(O)CC[C@]5(F)[C@H]4CC[C@]23C)c1 [Example 59, Ethyl 1-(2-((3R,5R,8S,9S,10R,13S,14S,17S)-10-fluoro-3-hydroxy-3,13-dimethylhexadecahydro-1H-cyclopenta[a]phenanthren-17-yl)-2-oxoethyl)-1H-pyrazole-4-carboxylate] | 9.4
COc1ccc2nn(CC(=O)[C@H]3CC[C@H]4[C@@H]5CC[C@@H]6C[C@](C)(O)CC[C@]6(F)[C@H]5CC[C@]34C)nc2c1 [Example 46, 1-((3R,5R,8S,9S,10R,13S,14S,17S)-10-Fluoro-3-hydroxy-3,13-dimethylhexadecahydro-1H-cyclopenta[a]phenanthren-17-yl)-2-(5-methoxy-2H-benzo[d][1,2,3]triazol-2-yl)ethan-1-one] | 5.6
C[C@@]1(O)CC[C@@]2(F)[C@H](CC[C@H]3[C@@H]4CC[C@H](C(=O)CNc5cccc(F)c5)[C@@]4(C)CC[C@@H]32)C1 [Example 25, 1-((3R,5R,8S,9S,10R,13S,14S,17S)-10-Fluoro-3-hydroxy-3,13-dimethylhexadecahydro-1H-cyclopenta[a]phenanthren-17-yl)-2-((3-fluorophenyl)amino)ethan-1-one] | 6.7
COc1ccc2nnn(CC(=O)[C@H]3CC[C@H]4[C@@H]5CC[C@@H]6C[C@](C)(O)CC[C@]6(F)[C@H]5CC[C@]34C)c2c1 [Example 47, 1-((3R,5R,8S,9S,10R,13S,14S,17S)-10-Fluoro-3-hydroxy-3,13-dimethylhexadecahydro-1H-cyclopenta[a]phenanthren-17-yl)-2-(6-methoxy-1H-benzo[d][1,2,3]triazol-1-yl)ethan-1-one] | 7.3
C[C@@]1(O)CC[C@@]2(F)[C@H](CC[C@H]3[C@@H]4CC[C@H](C(=O)COc5cc(C#N)ccc5F)[C@@]4(C)CC[C@@H]32)C1 [Example 34, 4-Fluoro-3-(2-((3R,5R,8S,9S,10R,13S,14S,17S)-10-fluoro-3-hydroxy-3,13-dimethylhexadecahydro-1H-cyclopenta[a]phenanthren-17-yl)-2-oxoethoxy)benzonitrile] | 9.3
C[C@@]1(O)CC[C@]2(F)C3CC[C@]4(C)[C@@H](C(=O)Cn5ncc(C6CC6)n5)CC[C@H]4[C@@H]3CC[C@@H]2C1 (stereo partly drawn) [Example 63, 2-(4-Cyclopropyl-2H-1,2,3-triazol-2-yl)-1-((3R,5R,8S,10R,13S,14S,17S)-10-fluoro-3-hydroxy-3,13-dimethylhexadecahydro-1H-cyclopenta[a]phenanthren-17-yl)ethan-1-one] | 25.8

From US11661437B2, “Steroid derivative regulators, method for preparing the same, and uses thereof” (priority 2018, dated 2023)
